Experimental data from patent US20240067693A1, “POLYPEPTIDES AND USES THEREOF” (MEDIMMUNE LIMITED, priority 2020, published 2024).
Numbered stars: 1 amine (or outer) side, 2 acyl side, 3 side chain; on linkers, the order of the positions; unused ones are H or OH. Bridge positions count the residues as written; N and C are the ends. Square brackets hold non-standard residues; d marks the D form. Side chains are listed from the residue outwards. Peptide text beside a SMILES is read from it. * marks the point of attachment. C18 diacid = O=C(O)CCCCCCCCCCCCCCCCC(=O)*; γGlu = O=C(O)[C@H](CCC(=O)[*:2])N[*:1]; αMeF = C[C@](N)(Cc1ccccc1)C(=O)O; Dab = NCC[C@H](N)C(=O)O; Aib = CC(C)(N)C(=O)O

Legend:
[1] = biological target: T1, human amylin receptor (calcitonin receptor co-expressed with receptor activity modifying protein, RAMP3) (hAMYR3) (Homo sapiens, UniProt O60896+P30988); test: cAMP production in 1321N1 cells with stable recombinant expression of human amylin receptor (hAMYR3); format: cell-based; conditions: for Ratio (selectivity hAMYR vs hCTR, ratio of EC50 values at the two receptors): EC50 hCTR / EC50 hAMYR3; for EC50: cAMP, 1321N1 cells, assay buffer with 0.1% BSA, read-out: EC50 (pM) hAMYR3
T1 construct: expressed in transfected cells
T1 sequence (P30988 25-474): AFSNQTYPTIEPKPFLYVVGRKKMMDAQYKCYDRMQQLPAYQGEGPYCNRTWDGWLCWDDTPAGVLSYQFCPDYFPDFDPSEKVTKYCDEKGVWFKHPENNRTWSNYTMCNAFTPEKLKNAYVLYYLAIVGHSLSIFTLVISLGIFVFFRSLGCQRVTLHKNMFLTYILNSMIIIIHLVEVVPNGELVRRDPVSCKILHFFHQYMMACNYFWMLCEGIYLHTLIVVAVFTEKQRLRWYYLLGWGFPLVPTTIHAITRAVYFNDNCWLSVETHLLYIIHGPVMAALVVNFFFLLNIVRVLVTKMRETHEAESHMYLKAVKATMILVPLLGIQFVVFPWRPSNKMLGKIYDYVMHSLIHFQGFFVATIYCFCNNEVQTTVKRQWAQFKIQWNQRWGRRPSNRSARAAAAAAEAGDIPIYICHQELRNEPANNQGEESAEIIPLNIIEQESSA
T1 sequence (O60896 24-148 partner): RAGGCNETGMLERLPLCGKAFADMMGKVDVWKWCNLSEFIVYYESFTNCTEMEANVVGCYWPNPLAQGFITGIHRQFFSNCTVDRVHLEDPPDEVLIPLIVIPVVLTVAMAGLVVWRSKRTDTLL
Outline: (§1)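 EC50 values come from 4-parameter logistic fits of HTRF cAMP signal, normalised to maximal calcitonin or amylin effect. Peptides were tested in duplicate for 30 min at RT in IBMX-containing (0.5 mM) BSA/HEPES buffer pH 7.4 on stable 1321N1 (human CTR, AMYR3) or HEK (rat CTR, AMYR3) lines.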

[2] = biological target: T2, human calcitonin receptor (hCTR) (Homo sapiens, UniProt P30988); test: cAMP production in 1321N1 cells with stable recombinant expression of human calcitonin receptor (hCTR); format: cell-based; conditions: cAMP, 1321N1 cells, assay buffer with 0.1% BSA; read-out: EC50 (pM) hCTR
T2 construct: expressed in transfected cells
T2 sequence (P30988 25-474): T1 sequence (P30988 25-474)
Outline: as §1

[3] = biological target: T3, rat calcitonin receptor (rat CTR) (Rattus norvegicus, UniProt P32214); test: cAMP production in HEK cells with stable recombinant expression of rat calcitonin receptor (rat CTR); format: cell-based; conditions: assay buffer with 0.1% BSA
T3 construct: expressed in transfected cells
T3 sequence (P32214 25-516): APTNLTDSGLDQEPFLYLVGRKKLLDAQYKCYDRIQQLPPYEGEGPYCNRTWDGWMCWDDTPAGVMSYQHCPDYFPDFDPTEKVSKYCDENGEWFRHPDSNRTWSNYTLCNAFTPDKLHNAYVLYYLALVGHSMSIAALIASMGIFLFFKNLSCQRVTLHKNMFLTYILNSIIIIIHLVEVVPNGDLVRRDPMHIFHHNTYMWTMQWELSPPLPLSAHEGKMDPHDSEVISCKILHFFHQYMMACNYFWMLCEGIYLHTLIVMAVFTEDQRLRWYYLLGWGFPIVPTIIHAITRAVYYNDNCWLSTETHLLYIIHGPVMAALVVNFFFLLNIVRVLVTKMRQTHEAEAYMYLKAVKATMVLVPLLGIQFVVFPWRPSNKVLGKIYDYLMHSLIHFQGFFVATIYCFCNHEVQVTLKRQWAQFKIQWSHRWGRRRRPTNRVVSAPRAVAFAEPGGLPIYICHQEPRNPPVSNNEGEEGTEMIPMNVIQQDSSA
Outline: as §1

[4] = Thioflavin T fibrillation assay; format: physicochemical; conditions: ThT fibrillation assay; peptide 1 mg/mL in 25 mM sodium acetate buffer pH 4.0; 6 days at 37 °C with shaking; >144 h = no increase
Outline: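 Peptides at 1 mg/mL in 25 mM sodium acetate pH 4.0 with ThT (from 0.25 mM stock), incubated 6 days at 37 °C with intermittent orbital shaking at 500–750 rpm. Fluorescence (ex 444/em 480 nm) read every 30 min; value is average time to a rise in baseline-corrected signal.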

Row | SMILES | Ratio (selectivity hAMYR vs hCTR, ratio of EC50 values at the two receptors) [1] | EC50 [1] [pM] | EC50 [2] [pM] | EC50 [3] [pM] | Time taken to detect increase in fluorescence intensity [4] [h]
1 | CC[C@H](C)[C@H](NC(=O)[C@H](C)NC(=O)[C@@H]1CCCN1C(=O)[C@H](Cc1ccccc1)NC(=O)[C@H](CC(N)=O)NC(=O)[C@H](CCN)NC(=O)[C@H](CO)NC(=O)[C@H](CO)NC(=O)[C@H](Cc1c[nH]cn1)NC(=O)[C@@H](NC(=O)[C@H](CC(C)C)NC(=O)[C@H](Cc1ccccc1)NC(=O)[C@H](CC(N)=O)NC(=O)[C@H](C)NC(=O)[C@H](CC(C)C)NC(=O)[C@H](CCCNC(=N)N)NC(=O)[C@H](CCC(N)=O)NC(=O)[C@@H](NC(=O)[C@H](C)NC(=O)[C@@H]1CSSC[C@H](NC(=O)[C@@H](N)CCCCNC(=O)CC[C@H](NC(=O)CC[C@H](NC(=O)CCCCCCCCCCCCCCCCC(=O)O)C(=O)O)C(=O)O)C(=O)N[C@@H](CC(N)=O)C(=O)N[C@@H]([C@@H](C)O)C(=O)N[C@@H](C)C(=O)N[C@@H]([C@@H](C)O)C(=O)N1)[C@@H](C)O)C(C)C)C(=O)N[C@@H](CC(C)C)C(=O)N[C@@H](CO)C(=O)N1CCC[C@H]1C(=O)N[C@H](C(=O)N[C@@H](CC(N)=O)C(=O)N[C@H](C(=O)NCC(=O)N[C@@H](CO)C(=O)N[C@@H](CC(N)=O)C(=O)N[C@H](C(=O)N[C@@H](Cc1ccc(O)cc1)C(N)=O)[C@@H](C)O)C(C)C)[C@@H](C)O [Peptide 8, K(γE-γE-C18diacid)[CNTATC]ATQRLANFLVHSS(Dab)NFPAILSPTNVGSNTY-amide] (H-K([γGlu-γGlu-C18 diacid])CNTATCATQRLANFLVHSS[Dab]NFPAILSPTNVGSNTY-NH2; disulfide 2-7) | 54 | 375 | 20200 | 19900 | 7
2 | CC[C@H](C)[C@H](NC(=O)[C@@H]1CCCN1C(=O)CNC(=O)[C@H](Cc1ccccc1)NC(=O)[C@H](CC(N)=O)NC(=O)C(C)(C)NC(=O)[C@H](CO)NC(=O)[C@H](CO)NC(=O)[C@H](Cc1c[nH]cn1)NC(=O)[C@H](CCCNC(=N)N)NC(=O)[C@H](CC(C)C)NC(=O)[C@H](Cc1ccccc1)NC(=O)[C@H](CC(N)=O)NC(=O)[C@H](C)NC(=O)[C@H](CC(C)C)NC(=O)[C@H](CCCNC(=N)N)NC(=O)[C@H](CCC(N)=O)NC(=O)[C@@H](NC(=O)[C@H](C)NC(=O)[C@@H]1CSSC[C@H](NC(=O)[C@@H](N)CCCCNC(=O)CC[C@H](NC(=O)CCCCCCCCCCCCCCCCC(=O)O)C(=O)O)C(=O)N[C@@H](CC(N)=O)C(=O)N[C@@H]([C@@H](C)O)C(=O)N[C@@H](C)C(=O)N[C@@H]([C@@H](C)O)C(=O)N1)[C@@H](C)O)C(=O)N[C@@H](CC(C)C)C(=O)N1CCC[C@H]1C(=O)N1CCC[C@H]1C(=O)N[C@H](C(=O)N[C@@H](CC(N)=O)C(=O)N[C@H](C(=O)NCC(=O)N[C@@H](CO)C(=O)N[C@@H](CC(N)=O)C(=O)N[C@H](C(=O)N[C@@H](Cc1ccc(O)cc1)C(N)=O)[C@@H](C)O)C(C)C)[C@@H](C)O [Peptide 48, K(γE-C18diacid)[CNTATC]ATQRLANFLRHSS(Aib)NFGPILPPTNVGSNTY-amide] (H-K([γGlu-C18 diacid])CNTATCATQRLANFLRHSS[Aib]NFGPILPPTNVGSNTY-NH2; disulfide 2-7; N-terminus assumed) | 42 | 126 | 5270 | 2430 | >144
3 | CC[C@H](C)[C@H](NC(=O)[C@@H]1CCCN1C(=O)CNC(=O)[C@](C)(Cc1ccccc1)NC(=O)[C@H](CC(N)=O)NC(=O)[C@H](CC(N)=O)NC(=O)[C@H](CO)NC(=O)[C@H](CO)NC(=O)[C@H](Cc1c[nH]cn1)NC(=O)[C@H](CCCNC(=N)N)NC(=O)[C@H](CC(C)C)NC(=O)[C@H](Cc1ccccc1)NC(=O)[C@H](CCC(=O)O)NC(=O)[C@H](C)NC(=O)[C@H](CC(C)C)NC(=O)[C@H](CCCNC(=N)N)NC(=O)[C@H](CCC(N)=O)NC(=O)[C@@H](NC(=O)[C@H](C)NC(=O)[C@@H]1CSSC[C@H](NC(=O)[C@H](CCCCN)NC(=O)[C@@H](N)CCCCNC(=O)CC[C@H](NC(=O)CCCCCCCCCCCCCCCCC(=O)O)C(=O)O)C(=O)N[C@@H](CC(N)=O)C(=O)N[C@@H]([C@@H](C)O)C(=O)N[C@@H](C)C(=O)N[C@@H]([C@@H](C)O)C(=O)N1)[C@@H](C)O)C(=O)N[C@@H](CC(C)C)C(=O)N1CCC[C@H]1C(=O)N1CCC[C@H]1C(=O)N[C@H](C(=O)N[C@@H](CC(N)=O)C(=O)N[C@H](C(=O)NCC(=O)N[C@@H](CO)C(=O)N[C@@H](CC(N)=O)C(=O)N[C@H](C(=O)N[C@@H](Cc1ccc(O)cc1)C(N)=O)[C@@H](C)O)C(C)C)[C@@H](C)O [Peptide 12, K(γE-C18diacid)K[CNTATC]ATQRLAEFLRHSSNN(αMePhe)GPILPPTNVGSNTY-amide] (H-K([γGlu-C18 diacid])KCNTATCATQRLAEFLRHSSNN[αMeF]GPILPPTNVGSNTY-NH2; disulfide 3-8; N-terminus assumed) | 8 | 158 | 1220 | 107 | >144
4 | CC[C@H](C)[C@H](NC(=O)[C@@H]1CCCN1C(=O)CNC(=O)[C@](C)(Cc1ccccc1)NC(=O)[C@H](CC(N)=O)NC(=O)[C@H](CC(N)=O)NC(=O)[C@H](CO)NC(=O)[C@H](CO)NC(=O)[C@H](Cc1c[nH]cn1)NC(=O)[C@@H](NC(=O)[C@H](CC(C)C)NC(=O)[C@H](Cc1ccccc1)NC(=O)[C@H](CC(N)=O)NC(=O)[C@H](C)NC(=O)[C@H](CC(C)C)NC(=O)[C@H](CCCNC(=N)N)NC(=O)[C@H](CCC(N)=O)NC(=O)[C@@H](NC(=O)[C@H](C)NC(=O)[C@@H]1CSSC[C@H](NC(=O)[C@@H](N)CCCCNC(=O)CC[C@H](NC(=O)CC[C@H](NC(=O)CCCCCCCCCCCCCCCCC(=O)O)C(=O)O)C(=O)O)C(=O)N[C@@H](CC(N)=O)C(=O)N[C@@H]([C@@H](C)O)C(=O)N[C@@H](C)C(=O)N[C@@H]([C@@H](C)O)C(=O)N1)[C@@H](C)O)C(C)C)C(=O)N[C@@H](CC(C)C)C(=O)N1CCC[C@H]1C(=O)N1CCC[C@H]1C(=O)N[C@H](C(=O)N[C@@H](CCCNC(=N)N)C(=O)N[C@H](C(=O)NCC(=O)N[C@@H](CO)C(=O)N[C@@H](CC(N)=O)C(=O)N[C@H](C(=O)N[C@@H](Cc1ccc(O)cc1)C(N)=O)[C@@H](C)O)C(C)C)[C@@H](C)O [Peptide 24, K(γE-γE-C18diacid)[CNTATC]ATQRLANFLVHSSNN(αMePhe)GPILPPTRVGSNTY-amide] (H-K([γGlu-γGlu-C18 diacid])CNTATCATQRLANFLVHSSNN[αMeF]GPILPPTRVGSNTY-NH2; disulfide 2-7; N-terminus assumed) | 15 | 127 | 1860 | 755 | >144
